Test results: the supplement of paper PMC8149375

Legend:
Conditions in all cases: treatment: drug + dasatinib (fixed dose, not stated); 5 days
[1] = system: 769-P; assay: GI50 of drug in presence of dasatinib; higher = less potent
Procedure: (§1)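 Primary HTS combination arm: 8 RCC cell lines treated with 8 doses (up to 10 uM) of each library drug plus a fixed dose of dasatinib (dose not stated) for 5 days; viability read by CellTiter-Glo and normalised to DMSO. GI50 was fitted with XLfit, AUC is the area under the dose-response curve, and minimum viability is the lowest fraction of DMSO viability across doses.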

[2] = system: 786-O; assay: as above
Procedure: as §1

[3] = system: A498; assay: as above
Procedure: as §1

[4] = system: ACHN; assay: as above
Procedure: as §1

[5] = system: CAKI-1; assay: as above
Procedure: as §1

[6] = system: SN12C; assay: as above
Procedure: as §1

[7] = system: TK-10; assay: as above
Procedure: as §1

[8] = system: UO-31; assay: as above
Procedure: as §1

[9] = system: 769-P; assay: minimum viability across doses, drug + dasatinib, relative to DMSO (fraction); higher = less growth inhibition
Procedure: as §1

[10] = system: 786-O; assay: as above
Procedure: as §1

[11] = system: A498; assay: as above
Procedure: as §1

[12] = system: ACHN; assay: as above
Procedure: as §1

[13] = system: CAKI-1; assay: as above
Procedure: as §1

[14] = system: SN12C; assay: as above
Procedure: as §1

[15] = system: TK-10; assay: as above
Procedure: as §1

[16] = system: UO-31; assay: as above
Procedure: as §1

[17] = system: 769-P; assay: AUC of dose-response viability curve, drug + dasatinib, normalised to DMSO (arbitrary (AUC of normalised viability)); higher = less growth inhibition
Procedure: as §1

[18] = system: 786-O; assay: as above
Procedure: as §1

[19] = system: A498; assay: as above
Procedure: as §1

[20] = system: ACHN; assay: as above
Procedure: as §1

[21] = system: CAKI-1; assay: as above
Procedure: as §1

[22] = system: SN12C; assay: as above
Procedure: as §1

[23] = system: TK-10; assay: as above
Procedure: as §1

[24] = system: UO-31; assay: as above
Procedure: as §1

| SMILES | GI50 of drug [1] | GI50 of drug [2] | GI50 of drug [3] | GI50 of drug [4] | GI50 of drug [5] | GI50 of drug [6] | GI50 of drug [7] | GI50 of drug [8] | minimum viability across doses [9] | minimum viability across doses [10] | minimum viability across doses [11] | minimum viability across doses [12] | minimum viability across doses [13] | minimum viability across doses [14] | minimum viability across doses [15] | minimum viability across doses [16] | AUC of dose-response viability curve [17] | AUC of dose-response viability curve [18] | AUC of dose-response viability curve [19] | AUC of dose-response viability curve [20] | AUC of dose-response viability curve [21] | AUC of dose-response viability curve [22] | AUC of dose-response viability curve [23] | AUC of dose-response viability curve [24] |
| --- | --- | --- | --- | --- | --- | --- | --- | --- | --- | --- | --- | --- | --- | --- | --- | --- | --- | --- | --- | --- | --- | --- | --- | --- |
| Cc1csc(-c2nnc(Nc3ccc(Oc4ncccc4-c4ccnc(N)n4)cc3)c3ccccc23)c1 [AMG 900] + Cc1nc(Nc2ncc(C(=O)Nc3c(C)cccc3Cl)s2)cc(N2CCN(CCO)CC2)n1 [dasatinib] | 0.0361 µM | 0.0072 µM | > 10 µM | 0.00854 µM | 0.0154 µM | 0.383 µM | 6.46 µM | > 10 µM | 0.211 | 0.117 | 0.562 | 0.186 | 0.286 | 0.319 | 0.459 | 0.604 | 1.44 | 0.863 | 3.08 | 1.25 | 1.32 | 1.93 | 2.2 | 4.1 |
| COc1ccc2c(OCc3nnc4ccc(-c5ccccc5)nn34)ccnc2c1 [AMG-208] + Cc1nc(Nc2ncc(C(=O)Nc3c(C)cccc3Cl)s2)cc(N2CCN(CCO)CC2)n1 [dasatinib] | > 10 µM | > 10 µM | > 10 µM | > 10 µM | > 10 µM | > 10 µM | > 10 µM | > 10 µM | 0.634 | 0.68 | 0.805 | 0.544 | 0.613 | 0.688 | 0.642 | 0.987 | 2.4 | 2.6 | 3.32 | 2.07 | 2.24 | 2.52 | 2.54 | 3.91 |
| O=C1NC(=O)[C@@H](c2cn3c4c(cccc24)CCC3)[C@@H]1c1c[nH]c2ccccc12 [ARQ 197 (Tivantinib)] + Cc1nc(Nc2ncc(C(=O)Nc3c(C)cccc3Cl)s2)cc(N2CCN(CCO)CC2)n1 [dasatinib] | 0.509 µM | 0.191 µM | 0.975 µM | 0.367 µM | 0.178 µM | 1.87 µM | 1.46 µM | 1.98 µM | 0.0843 | 0.00404 | 0.133 | 0.147 | 0.0929 | 0.181 | 0.298 | 0.03 | 1.87 | 1.42 | 2.42 | 1.73 | 1.56 | 2.01 | 2.11 | 2.97 |
| C=CC(=O)Nc1ccc2ncnc(Nc3ccc(OCc4cccc(F)c4)c(Cl)c3)c2c1.Cc1ccc(S(=O)(=O)O)cc1 [AST-1306] + Cc1nc(Nc2ncc(C(=O)Nc3c(C)cccc3Cl)s2)cc(N2CCN(CCO)CC2)n1 [dasatinib] | 0.321 µM | 1.11 µM | 9.99 µM | 0.0847 µM | 1.68 µM | 5.35 µM | 0.406 µM | 3.17 µM | 0.0288 | 0.0714 | 0.495 | 0.138 | 0.00665 | 0.0534 | 0.0976 | 0.06 | 1.82 | 1.99 | 3.44 | 1.62 | 2.04 | 2.22 | 2.01 | 3.51 |
| Cc1cc2c(C(C)C)c(O)c(O)c(C=O)c2c(O)c1-c1c(C)cc2c(C(C)C)c(O)c(O)c(C=O)c2c1O [AT101] + Cc1nc(Nc2ncc(C(=O)Nc3c(C)cccc3Cl)s2)cc(N2CCN(CCO)CC2)n1 [dasatinib] | > 10 µM | > 10 µM | > 10 µM | 1.85 µM | 3.35 µM | > 10 µM | > 10 µM | > 10 µM | 0.636 | 0.265 | 0.835 | 0.133 | 0.106 | 0.667 | 0.517 | 0.947 | 2.6 | 2.18 | 3.27 | 1.84 | 2.15 | 2.62 | 2.33 | 3.9 |
| O=C(NC1CCNCC1)c1n[nH]cc1NC(=O)c1c(Cl)cccc1Cl [AT7519] + Cc1nc(Nc2ncc(C(=O)Nc3c(C)cccc3Cl)s2)cc(N2CCN(CCO)CC2)n1 [dasatinib] | 1.13 µM | 0.218 µM | 0.337 µM | 0.271 µM | 0.347 µM | 0.435 µM | 0.61 µM | 0.864 µM | 0.0219 | 0.00538 | 0.00778 | 0.00318 | 0.0385 | 0.00559 | 0.179 | 0.00867 | 2.02 | 1.52 | 2.2 | 1.44 | 1.64 | 1.59 | 2.09 | 2.79 |
| Clc1ccc(C2(c3ccc(-c4cn[nH]c4)cc3)CCNCC2)cc1 [AT7867] + Cc1nc(Nc2ncc(C(=O)Nc3c(C)cccc3Cl)s2)cc(N2CCN(CCO)CC2)n1 [dasatinib] | 1.69 µM | 0.577 µM | 8.31 µM | 0.53 µM | 0.762 µM | 3.46 µM | 1.97 µM | 0.348 µM | 0.124 | 0.00775 | 0.135 | 0.0726 | 0.094 | 0.192 | 0.0469 | 0.00689 | 2.16 | 1.85 | 3.22 | 1.69 | 1.96 | 2.43 | 2.49 | 2.34 |
